The record followed here is ChEMBL document CHEMBL5291721, “A preclinical secondary pharmacology resource illuminates target-adverse drug reaction associations of marketed drugs” (Nat Commun, 2023).

Targets include Mu-type opioid receptor (Homo sapiens, UniProt P35372); Melanocortin receptor 4 (Homo sapiens, UniProt P32245); Adenosine receptor A2a (Homo sapiens, UniProt P29274).
The target of a further assay is T1, Adenosine receptor A3 (Homo sapiens, UniProt P0DMS8).
T1 sequence (P0DMS8 whole entry): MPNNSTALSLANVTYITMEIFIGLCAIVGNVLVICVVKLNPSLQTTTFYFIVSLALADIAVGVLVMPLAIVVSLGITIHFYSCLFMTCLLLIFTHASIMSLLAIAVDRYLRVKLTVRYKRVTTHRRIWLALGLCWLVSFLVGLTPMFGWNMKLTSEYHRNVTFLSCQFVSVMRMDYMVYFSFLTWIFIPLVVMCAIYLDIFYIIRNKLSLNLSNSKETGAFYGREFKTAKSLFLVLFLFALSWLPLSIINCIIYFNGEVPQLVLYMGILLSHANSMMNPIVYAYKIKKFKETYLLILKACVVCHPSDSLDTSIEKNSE

In assay [1] the target is T2, Cannabinoid receptor 1 (Homo sapiens, UniProt P21554).
T2 sequence (P21554 whole entry): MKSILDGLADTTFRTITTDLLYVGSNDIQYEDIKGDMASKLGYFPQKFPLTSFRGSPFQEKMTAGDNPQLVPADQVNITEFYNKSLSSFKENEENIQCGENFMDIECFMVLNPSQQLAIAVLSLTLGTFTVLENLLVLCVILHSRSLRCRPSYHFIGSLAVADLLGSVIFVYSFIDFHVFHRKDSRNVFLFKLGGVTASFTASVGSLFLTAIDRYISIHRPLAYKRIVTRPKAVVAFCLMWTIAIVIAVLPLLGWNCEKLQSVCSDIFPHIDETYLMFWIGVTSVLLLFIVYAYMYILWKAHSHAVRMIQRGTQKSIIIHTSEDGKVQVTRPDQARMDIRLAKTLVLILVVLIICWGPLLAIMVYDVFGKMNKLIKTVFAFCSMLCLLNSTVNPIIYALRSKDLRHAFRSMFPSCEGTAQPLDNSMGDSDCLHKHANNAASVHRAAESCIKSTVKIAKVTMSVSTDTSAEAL
Assay [2] concerns the target T3, 5-hydroxytryptamine receptor 1A (Homo sapiens, UniProt P08908).
T3 sequence (P08908 whole entry): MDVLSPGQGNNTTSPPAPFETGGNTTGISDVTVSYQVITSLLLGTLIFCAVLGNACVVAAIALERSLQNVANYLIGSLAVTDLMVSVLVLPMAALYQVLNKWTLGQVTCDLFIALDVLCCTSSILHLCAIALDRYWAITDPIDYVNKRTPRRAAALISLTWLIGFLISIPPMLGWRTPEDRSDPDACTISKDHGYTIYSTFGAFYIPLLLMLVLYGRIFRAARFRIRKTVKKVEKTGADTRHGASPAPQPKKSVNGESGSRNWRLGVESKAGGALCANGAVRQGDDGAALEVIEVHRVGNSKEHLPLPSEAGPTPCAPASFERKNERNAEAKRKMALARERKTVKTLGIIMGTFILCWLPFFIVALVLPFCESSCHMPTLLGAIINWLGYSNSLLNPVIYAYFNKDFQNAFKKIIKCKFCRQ

In a further assay the target is T4, Endothelin-1 receptor (Homo sapiens, UniProt P25101).
T4 sequence (P25101 whole entry): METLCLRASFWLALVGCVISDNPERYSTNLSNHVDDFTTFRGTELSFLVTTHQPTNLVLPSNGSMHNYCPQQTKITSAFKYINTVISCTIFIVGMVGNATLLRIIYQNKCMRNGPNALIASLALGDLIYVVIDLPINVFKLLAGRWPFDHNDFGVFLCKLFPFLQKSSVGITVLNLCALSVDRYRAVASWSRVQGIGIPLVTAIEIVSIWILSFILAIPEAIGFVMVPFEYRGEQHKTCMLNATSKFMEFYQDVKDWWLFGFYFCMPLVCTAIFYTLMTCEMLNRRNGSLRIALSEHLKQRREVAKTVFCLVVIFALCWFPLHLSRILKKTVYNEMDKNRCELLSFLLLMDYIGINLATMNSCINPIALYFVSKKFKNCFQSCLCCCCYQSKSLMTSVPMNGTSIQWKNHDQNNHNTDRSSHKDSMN

Assay [3] addresses T5, Prostaglandin G/H synthase 1 (Rattus norvegicus, UniProt Q63921).
T5 sequence (Q63921 whole entry): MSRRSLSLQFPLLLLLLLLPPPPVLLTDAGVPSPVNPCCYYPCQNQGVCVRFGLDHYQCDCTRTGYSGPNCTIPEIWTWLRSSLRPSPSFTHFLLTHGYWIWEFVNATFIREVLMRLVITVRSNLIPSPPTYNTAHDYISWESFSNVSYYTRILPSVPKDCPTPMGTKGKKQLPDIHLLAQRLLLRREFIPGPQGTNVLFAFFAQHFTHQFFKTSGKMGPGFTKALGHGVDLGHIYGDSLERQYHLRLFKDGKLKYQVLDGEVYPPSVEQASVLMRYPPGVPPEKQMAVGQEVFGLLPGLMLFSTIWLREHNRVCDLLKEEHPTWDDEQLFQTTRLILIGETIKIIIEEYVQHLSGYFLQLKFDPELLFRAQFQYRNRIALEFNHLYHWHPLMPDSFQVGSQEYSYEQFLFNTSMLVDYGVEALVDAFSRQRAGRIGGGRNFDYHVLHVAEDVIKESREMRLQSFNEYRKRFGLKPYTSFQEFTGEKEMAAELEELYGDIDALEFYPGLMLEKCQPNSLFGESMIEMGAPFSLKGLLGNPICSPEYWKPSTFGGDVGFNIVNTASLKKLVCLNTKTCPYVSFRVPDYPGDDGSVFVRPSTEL
The assay is classed as functional.

In assay [4] the target is T2, Cannabinoid receptor 1. The assay is classed as functional, cell-based.
Assay [5] has as its target T6, 5-hydroxytryptamine receptor 2A (Homo sapiens, UniProt P28223). Type of assay: functional, cell-based.
Assay [6] has as its target Beta-2 adrenergic receptor (Homo sapiens, UniProt P07550). The assay is classed as functional, cell-based.
The target of assay [7] is T3, 5-hydroxytryptamine receptor 1A. Type of assay: functional, cell-based.
The target of assay [8] is T6, 5-hydroxytryptamine receptor 2A. Type of assay: functional, cell-based. This is another data set of the same source.
The target in assay [9] is T7, Alpha-1A adrenergic receptor (Homo sapiens, UniProt P35348).
T7 sequence (P35348 whole entry): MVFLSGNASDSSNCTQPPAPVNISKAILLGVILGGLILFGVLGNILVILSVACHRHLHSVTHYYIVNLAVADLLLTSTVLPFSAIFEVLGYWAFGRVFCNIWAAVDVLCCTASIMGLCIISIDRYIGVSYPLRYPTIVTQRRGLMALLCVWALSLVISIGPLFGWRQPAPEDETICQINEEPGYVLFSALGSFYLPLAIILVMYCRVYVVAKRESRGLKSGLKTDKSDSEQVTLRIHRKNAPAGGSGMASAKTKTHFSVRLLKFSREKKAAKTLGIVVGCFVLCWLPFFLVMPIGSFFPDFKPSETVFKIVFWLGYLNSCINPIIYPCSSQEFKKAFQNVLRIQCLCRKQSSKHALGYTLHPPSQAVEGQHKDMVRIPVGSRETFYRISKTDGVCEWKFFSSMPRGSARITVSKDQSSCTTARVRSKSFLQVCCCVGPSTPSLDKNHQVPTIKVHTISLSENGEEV

Assay [10] deals with Muscarinic acetylcholine receptor M3 (Homo sapiens, UniProt P20309).
Muscarinic acetylcholine receptor M3, sequence (P20309 whole entry): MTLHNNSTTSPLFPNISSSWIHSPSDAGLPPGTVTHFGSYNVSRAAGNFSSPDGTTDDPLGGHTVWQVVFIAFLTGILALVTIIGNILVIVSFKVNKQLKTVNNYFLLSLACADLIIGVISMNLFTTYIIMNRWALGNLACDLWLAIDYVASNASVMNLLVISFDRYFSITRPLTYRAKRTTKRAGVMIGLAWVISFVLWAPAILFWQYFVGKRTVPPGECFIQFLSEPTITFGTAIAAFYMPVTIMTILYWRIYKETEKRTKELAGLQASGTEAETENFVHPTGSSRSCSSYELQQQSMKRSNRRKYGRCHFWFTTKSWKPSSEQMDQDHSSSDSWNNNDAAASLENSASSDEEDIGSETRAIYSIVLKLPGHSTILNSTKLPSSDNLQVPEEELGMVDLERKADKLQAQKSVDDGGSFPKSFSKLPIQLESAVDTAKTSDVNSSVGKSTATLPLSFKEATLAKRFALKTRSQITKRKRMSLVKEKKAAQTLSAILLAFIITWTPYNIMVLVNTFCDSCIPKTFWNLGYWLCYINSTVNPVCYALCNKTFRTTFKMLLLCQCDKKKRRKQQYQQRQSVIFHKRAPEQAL
Assay [11] deals with T2, Cannabinoid receptor 1. The assay is classed as functional, cell-based. The source holds these as a separate data set.
Note: assay procedure not described here.

T6 sequence (P28223 whole entry): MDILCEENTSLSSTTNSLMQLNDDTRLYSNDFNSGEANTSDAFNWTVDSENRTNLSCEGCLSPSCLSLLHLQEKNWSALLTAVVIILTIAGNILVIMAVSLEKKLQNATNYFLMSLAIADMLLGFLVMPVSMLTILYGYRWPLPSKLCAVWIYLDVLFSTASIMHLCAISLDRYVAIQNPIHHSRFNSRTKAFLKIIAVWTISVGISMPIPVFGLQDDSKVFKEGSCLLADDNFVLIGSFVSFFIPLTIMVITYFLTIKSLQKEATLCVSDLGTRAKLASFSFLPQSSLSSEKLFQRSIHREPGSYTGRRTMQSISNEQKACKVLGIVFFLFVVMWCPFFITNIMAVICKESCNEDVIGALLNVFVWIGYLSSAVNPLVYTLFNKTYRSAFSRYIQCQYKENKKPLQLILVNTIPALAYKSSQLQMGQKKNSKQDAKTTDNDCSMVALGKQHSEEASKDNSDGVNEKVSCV
Melanocortin receptor 4, sequence (P32245 whole entry): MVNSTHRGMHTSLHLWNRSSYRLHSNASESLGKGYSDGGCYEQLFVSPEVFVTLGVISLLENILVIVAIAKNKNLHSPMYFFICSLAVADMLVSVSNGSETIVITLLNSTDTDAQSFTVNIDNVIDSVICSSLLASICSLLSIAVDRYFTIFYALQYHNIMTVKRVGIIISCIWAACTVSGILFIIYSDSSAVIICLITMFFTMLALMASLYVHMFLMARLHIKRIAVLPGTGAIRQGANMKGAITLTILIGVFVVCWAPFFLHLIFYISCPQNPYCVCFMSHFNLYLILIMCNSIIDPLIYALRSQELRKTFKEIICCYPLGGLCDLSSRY
Adenosine receptor A2a, sequence (P29274 whole entry): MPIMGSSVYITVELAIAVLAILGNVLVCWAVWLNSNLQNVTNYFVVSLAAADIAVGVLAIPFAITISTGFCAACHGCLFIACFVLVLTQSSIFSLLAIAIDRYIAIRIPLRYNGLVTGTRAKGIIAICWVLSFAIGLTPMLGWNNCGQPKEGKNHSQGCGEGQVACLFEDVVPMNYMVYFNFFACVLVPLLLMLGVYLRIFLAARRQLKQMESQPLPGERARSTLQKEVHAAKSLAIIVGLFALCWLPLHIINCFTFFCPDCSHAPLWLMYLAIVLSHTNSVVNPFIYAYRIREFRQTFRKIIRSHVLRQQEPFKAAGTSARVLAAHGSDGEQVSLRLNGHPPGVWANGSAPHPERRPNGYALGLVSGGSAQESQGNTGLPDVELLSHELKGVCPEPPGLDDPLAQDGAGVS
Mu-type opioid receptor, sequence (P35372 whole entry): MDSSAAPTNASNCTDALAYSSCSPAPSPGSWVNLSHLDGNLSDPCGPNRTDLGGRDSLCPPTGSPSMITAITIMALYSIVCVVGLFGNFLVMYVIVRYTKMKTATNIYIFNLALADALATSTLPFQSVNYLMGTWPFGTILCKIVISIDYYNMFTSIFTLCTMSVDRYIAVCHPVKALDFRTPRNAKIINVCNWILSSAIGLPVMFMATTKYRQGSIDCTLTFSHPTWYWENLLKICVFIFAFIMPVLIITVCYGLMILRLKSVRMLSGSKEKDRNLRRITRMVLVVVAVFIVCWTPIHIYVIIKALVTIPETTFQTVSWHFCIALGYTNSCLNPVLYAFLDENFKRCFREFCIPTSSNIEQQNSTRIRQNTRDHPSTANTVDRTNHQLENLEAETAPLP
Beta-2 adrenergic receptor, sequence (P07550 whole entry): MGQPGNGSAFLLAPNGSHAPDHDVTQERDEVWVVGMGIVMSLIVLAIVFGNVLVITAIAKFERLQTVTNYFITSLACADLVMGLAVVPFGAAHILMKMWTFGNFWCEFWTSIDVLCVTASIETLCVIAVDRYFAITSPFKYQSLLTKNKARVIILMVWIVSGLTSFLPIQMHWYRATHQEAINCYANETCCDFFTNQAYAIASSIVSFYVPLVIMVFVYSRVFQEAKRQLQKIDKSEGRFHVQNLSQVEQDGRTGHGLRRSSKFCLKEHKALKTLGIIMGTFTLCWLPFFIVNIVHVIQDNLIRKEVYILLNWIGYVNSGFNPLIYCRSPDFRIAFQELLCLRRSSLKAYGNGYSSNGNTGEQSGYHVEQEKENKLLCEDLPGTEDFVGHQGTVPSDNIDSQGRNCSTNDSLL

For the compound `Cn1c(=O)cc(N2CCC[C@@H](N)C2)n(Cc2ccccc2C#N)c1=O` [ALOGLIPTIN], the AC50 on Mu-type opioid receptor is 8.8 µM; on Melanocortin receptor 4 it was above 30 µM; on Adenosine receptor A2a, above 30 µM; on Adenosine receptor A3 it was above 30 µM; at Cannabinoid receptor 1 [1], above 10 µM; in [2] it was above 10 µM. For the same compound, the half-maximal activity concentration (AC50) (on Endothelin-1 receptor; in [3]) was above 30 µM in each case.

For the compound `O=C1CN=C(c2ccccn2)c2cc(Br)ccc2N1` [BROMAZEPAM], the concentration at half-maximal activity (AC50) at Cannabinoid receptor 1 [4] is above 30 µM; at Mu-type opioid receptor, above 30 µM; on Melanocortin receptor 4, above 10 µM; in assay [5], above 10 µM; in assay [6], above 30 µM; at Adenosine receptor A2a, above 10 µM. Further, the AC50 is above 10 µM on Adenosine receptor A3; above 10 µM on Cannabinoid receptor 1 [1]; above 10 µM in [7]; above 10 µM in [8]; above 10 µM in assay [9]; above 30 µM in assay [10]. For the same compound, in [3], the AC50 was above 10 µM.

As to `C=C1/C(=C\C=C2/CCC[C@]3(C)[C@@H]([C@H](C)/C=C/[C@@H](O)C4CC4)CC[C@@H]23)C[C@@H](O)C[C@@H]1O` [CALCIPOTRIENE], the AC50 in [5] was above 30 µM; at Adenosine receptor A2a it was above 30 µM; at Adenosine receptor A3 it was 12 µM; at Cannabinoid receptor 1 [1] it was above 30 µM; in assay [2], above 30 µM; in [8] it was above 30 µM. Also, the half-maximal activity concentration (AC50) in assay [9] was 29 µM; on Endothelin-1 receptor, above 30 µM; in [10] it was above 30 µM; in assay [3], 2.2 µM.

`CC(=O)OCC(=O)[C@@]1(O)[C@H](C)C[C@H]2[C@@H]3CCC4=CC(=O)C=C[C@]4(C)[C@@]3(F)[C@@H](O)C[C@@]21C` [DEXAMETHASONE ACETATE]: the concentration at half-maximal activity (AC50) is above 30 µM on Cannabinoid receptor 1 [4]; above 30 µM on Mu-type opioid receptor; above 30 µM at Melanocortin receptor 4; above 30 µM at Adenosine receptor A2a; above 30 µM at Adenosine receptor A3; 20 µM at Cannabinoid receptor 1 [11]. The AC50 in [7] was above 10 µM; in assay [2] it was above 10 µM; in assay [9], above 10 µM; on Endothelin-1 receptor it was above 30 µM; in assay [10] it was above 30 µM; in assay [3], above 30 µM.

Take `CCN(CC)CCN1C(=O)CN=C(c2ccccc2F)c2cc(Cl)ccc21` [FLURAZEPAM]: the concentration at half-maximal activity (AC50) on Mu-type opioid receptor is above 30 µM; on Melanocortin receptor 4, above 30 µM; in assay [6], above 30 µM; on Adenosine receptor A2a, above 30 µM; on Adenosine receptor A3, above 30 µM; at Cannabinoid receptor 1 [1] it was above 10 µM. Further, the AC50 is 5.47 µM in assay [2], above 10 µM in [9], above 30 µM in assay [10] and above 30 µM in [3].

For the compound `CCCCCC(=O)O[C@]1(C(C)=O)CC[C@H]2[C@@H]3CCC4=CC(=O)CC[C@]4(C)[C@H]3CC[C@@]21C` [HYDROXYPROGESTERONE CAPROATE], the half-maximal activity concentration (AC50) is above 30 µM on Cannabinoid receptor 1 [4]; above 30 µM at Melanocortin receptor 4; above 30 µM in assay [5]; above 30 µM in assay [6]; above 30 µM at Adenosine receptor A2a; 18.4 µM on Adenosine receptor A3. Also, the AC50 (at Cannabinoid receptor 1 [11]; on Cannabinoid receptor 1 [1]; in [8]; in assay [9]; in assay [10]; in assay [3]) was above 30 µM throughout.

For the compound `Cc1ncc2n1-c1ccc(Cl)cc1C(c1ccccc1F)=NC2` [MIDAZOLAM], the concentration at half-maximal activity (AC50) was above 30 µM at Mu-type opioid receptor; above 30 µM on Melanocortin receptor 4; above 30 µM in [6]; above 30 µM at Adenosine receptor A2a; above 30 µM on Adenosine receptor A3; above 10 µM on Cannabinoid receptor 1 [1]. Further, the concentration at half-maximal activity (AC50) is above 10 µM in assay [2], above 10 µM in assay [9], above 30 µM in assay [10] and above 30 µM in assay [3].

Regarding `Cn1cnc2c(F)c(Nc3ccc(Br)cc3Cl)c(C(=O)NOCCO)cc21` [SELUMETINIB], the AC50 was above 30 µM at Mu-type opioid receptor; above 30 µM at Adenosine receptor A2a; above 30 µM at Adenosine receptor A3; above 10 µM in assay [2]; above 10 µM in [9]; above 30 µM in assay [3].

Turning to `CCC(COC(=O)c1cc(OC)c(OC)c(OC)c1)(c1ccccc1)N(C)C` (configuration not stated) [TRIMEBUTINE], the concentration at half-maximal activity (AC50) at Cannabinoid receptor 1 [4] is above 30 µM; in [5] it was above 30 µM; in assay [6], above 30 µM; on Adenosine receptor A2a, above 30 µM; at Adenosine receptor A3 it was 30 µM; at Cannabinoid receptor 1 [11] it was above 30 µM. Further, the AC50 (in assay [7]; in assay [8]; on Endothelin-1 receptor; in [10]; in assay [3]) was above 30 µM throughout.
